According to patent US20090326008A1, “NF-kappa B Inhibitor” (priority 2006, published 2009):

Legend:
Format in all cases: cell-based, human
[1] = tested on: NF-κB; experiment: NF-kappaB reporter assay (pNF-kappaB-SEAP) in IL-1β-stimulated MKN-45 cells; conditions: IL-1β 2 ng/mL for 6 hours, DMSO (0.05%) control = 1.00, triplicate
Experimental: pNF-kappaB-SEAP was obtained from Clonetech Laboratories Inc.
Cryopreserved MKN-45 cells (product of JCRB (Japanese Collection of Research Bioresources)) were thawed and cultured in a standard medium in an incubator (37° C., 5% CO2). Every three to five days, the cells were recovered by treatment with Trypsin-EDTA, then adequately diluted and subcultured. MKN-45 cells subcultured two or more times with a survival rate of 95% or more were used in each experiment.
The subcultured MKN-45 cells were harvested using Trypsin-EDTA solution, and the number of viable cells was counted. The cells were suspended in a standard medium to yield a 1.5×10^5 cells/mL suspension. A 24-well plate was seeded with 500 μL/well of the cell suspension, and the cells were cultured in an incubator (37° C., 5% CO2).
The day after seeding, transfection was performed according to the following protocol.
(4.1) Preparation of Plasmid Solution 4 μL of 0.1 μg/μL pNFkappaB-SEAP was placed into each well and diluted with 50 μL of OPTI-MEM I (product of Invitrogen Japan K.K.) by mixing by inversion.
1 μL of Lipofectamine 2000 reagent (product of Invitrogen) was placed into each well and diluted with 50 μL of OPTI-MEM I (product of Life Technologies Inc.) by mixing by inversion. The mixture was allowed to stand at room temperature for 5 to 10 minutes to prepare a Lipofectamine dilution.
The plasmid solution and the Lipofectamine dilution were mixed by inversion and allowed to stand at room temperature for 20 to 30 minutes to prepare a transfection mixture.
The culture medium was removed from the 24-well plate by suction. While care was taken not to dry the subcultured MKN-45 cells, the inner surface of the wells was washed with 1 mL/well of PBS. After the medium was replaced with 500 μL/well of OPTI-MEM I (product of Life Technologies Inc.), 100 μL/well of the transfection mixture was added, and the cells were cultured in a incubator (37° C., 5% CO2). After about 5 hours of incubation, the medium was replaced with a standard medium, and the cells were further cultured in a CO2 incubator (37° C., 5% CO2) until the following day.
On the following morning, the culture medium supernatant was removed by suction and replaced with 1 mL/well of the test compound solution or control solution diluted with a standard medium. The cells were cultured in a CO2 incubator (37° C., 5% CO2) for 1 hour. Each experiment was performed in triplicate.
200 ng/mL IL-1β was added in an amount of 10 μL/well (final concentration: 2 ng/mL), and the cells were cultured in a CO2 incubator (37° C., 5% CO2) for 6 hours.
A reporter assay was performed using Reporter Assay Kit-SEAP (product of Toyobo Co.) according to the manufacturer's protocol.
More specifically, 500 μL of the culture broth was transferred into a tube and centrifuged at 15,000 rpm for 5 minutes at 4° C. The supernatant was transferred into a 96-well white plate. The positive control included in the Reporter Assay Kit-SEAP, and a standard medium as a blank control were each added in an amount of 20 μL/well to the 96-well white plate. Further, an inhibitor for inhibiting the AP activity of the MKN-45 cells was added in an amount of 20 μL/well. After sealing the plate, the contents were mixed well. The plate was placed into a CO2 incubator (37° C., 5% CO2) and allowed to stand for 30 minutes. Subsequently, the plate was allowed to stand on ice for 1 minute, followed by addition of 160 μL/well of Lumi-Phos Plus (a chemiluminescent substrate, product of Lumigen Inc.). The plate was sealed again and placed in a light-shielded state into a CO2 incubator (37° C., 5% CO2). After the plate was allowed to stand for 15 to 30 minutes, luminescence was measured for about 5 to about 10 seconds using a luminometer.
The results of the reporter assay were expressed as Percent Control (or Inhibition), calculated according to the following formulae. The luminescence of each sample was calculated by subtracting the average of blank samples.

[2] = tested on: COX2; experiment: Relative COX2 mRNA expression in IL-1β-stimulated MKN-45 cells (real-time PCR); conditions: IL-1β-stimulated DMSO-treated cells = 100%, ACTB reference
Experimental: (§1) RNA was extracted from the cells used in Example 2 according to the manufacturer's protocol for ABI Prism 6100 Nucleic Acid PrepStation (a nucleic acid isolation system, product of Applied Biosystems). More specifically, after removal of the culture supernatant and washing with 1 mL of PBS, 250 μL of Nucleic Acid Purification Lysis Solution (Part No. 4305895, Applied Biosystems) was added, and then agitated using a shaker for 2 to 3 minutes. The Lysis Solution containing the cell lysate was collected, and the total amount was transferred to the wells of RNA Purification Tray (Part No. 4305673, Applied Biosystems), which had been pre-wet with 40 μL of Nucleic Acid Purification Wash Solution I (Part No. 4305891, Applied Biosystems) beforehand. Aspiration (20% pressure) was performed for 2 minutes to adsorb the sample onto the RNA Purification Tray, followed by sequentially adding and aspirating (20% pressure, 2 min.) 500 μL of Wash Solution I, Nucleic Acid Purification (Part No. 4305891, Applied Biosystems), 400 μL of Wash Solution II, Nucleic Acid Purification (Part No. 4305890, product of Applied Biosystems), 400 μL of the Wash Solution II, and 300 μL of the Wash Solution II in that order. Aspiration (90% pressure) was performed for 5 minutes to remove the water content from the RNA Purification Trays. After addition of 150 μL of Elution Solution, Nucleic Acid Purification (Part No. 4305893, product of Applied Biosystems), aspiration (20% pressure) was performed for 2 minutes, while collecting the outflow. This was used as collected RNA solution.
(§2) Absorbance of the collected RNA solution at 260 nm was measured using a microplate spectrophotometer (“SpectraMax Plus”, product of Molecular Devices) with an analysis software (“SOFTmaxPRO ver.3.1.2”, product of Molecular Devices), and the RNA concentration was determined from the absorbance. Likewise, absorbance at 280 nm was measured and the purity of the RNA was determined using the analysis software.
(§3) cDNA was synthesized according to the manufacturer's protocol for TaqMan® Reverse Transcription Reagents (Part No. N808-0234, product of Applied Biosystems). More specifically, about 0.5 μg of RNA, 2.5 μL of 10×RT buffer, 5.5 μL of MgCl2 solution, 5 μL of dNTP mixture, 1.25 μL of random hexamer (primers), 0.5 μL of RNase inhibitor, and 0.63 μL of MultiScribe Reverse Transcriptase (product of Applied Biosystems) were added to each collected RNA sample in a tube, and DEPC-treated water was added to make a total volume of 25 μL and stirred. A reaction consisting of 25° C. for 10 minutes, 48° C. for 30 minutes, and 95° C. for 5 minutes was performed using a PCR thermal cycler (“TaKaRa PCR Thermal Cycler Dice”, product of Takara Bio Inc.) to prepare a cDNA solution.
(§4) PCR was performed according to the manufacturer's protocol for TaqMan® Gene Expression Assays (product of Applied Biosystems). More specifically, 5 μL of TaqMan® Fast Universal PCR Master Mix (product of Applied Biosystems), 0.5 μL of TaqMan® Gene Expression Assays for the target gene (gene-specific probe and primer sets, product of Applied Biosystems), and 4.5 μL of the above-obtained cDNA solution were added to each sample and stirred. A PCR reaction consisting of heating at 95° C. for 20 seconds, followed by 40 cycles consisting of heating at 95° C. for 3 seconds and annealing and extension at 60° C. for 30 seconds was performed using a real-time PCR device (“Applied Biosystems 7500 Real-Time PCR System”) with SDS v1.4 Software (product of Applied Biosystems). Threshold cycle (Ct) values were calculated using the software.
(§5) The Assay IDs of the TaqMan® Gene Expression Assays for the target genes used are as follows:
(§6) The expression level of each gene was determined according to the following formula using the level of ACTB as a reference standard.
(§7) (Relative mRNA expression level)=2̂−{(Ct value of the target gene)−(Ct value of ACTB)} […]

[3] = tested on: TNFα; experiment: Relative TNFα mRNA expression in IL-1β-stimulated MKN-45 cells (real-time PCR); conditions: IL-1β-stimulated DMSO-treated cells = 100%, ACTB reference
Experimental: as §1, §2, §3, §4, §5, §6, §7

[4] = tested on: IL-8; experiment: Relative IL-8 mRNA expression in IL-1β-stimulated MKN-45 cells (real-time PCR); conditions: IL-1β-stimulated DMSO-treated cells = 100%, ACTB reference
Experimental: as §1, §2, §3, §4, §5, §6, §7

Structure (SMILES)	NF-kappaB reporter (SEAP luminescence) IL-1b(+) mean, relative to control [1]	COX2 relative mRNA expression level, Mean [2] [%]	TNFa relative mRNA expression level, Mean [3] [%]	IL-8 relative mRNA expression level, Mean [4] [%]
COc1ccc(CC2SC(=O)NC2=O)c2c1N(Cc1ccc(NS(C)(=O)=O)cc1)C(=O)CC2 (stereo not drawn) [Test Compound 131]	0.49	80.9	71.3	77.9
CCCCCOC(=O)Nc1ccc(CN2C(=O)CCc3c(CC4SC(=O)NC4=O)ccc(OC)c32)cc1 (stereo not drawn) [Test Compound 232]	0.71	29.9	28.9	33.8
CCNC(=O)CCCN1C(=O)CCc2c(CC3SC(=O)NC3=O)ccc(OC)c21 (stereo not drawn) [Test Compound 613]	0.86	112.4	94.0	91.5
COc1ccc(CC2SC(=S)NC2=O)c2c1N(Cc1ccc(C(C)(C)C)cc1)C(=O)CC2 (stereo not drawn) [Test Compound 914]	0.53	32.9	66.7	61.9
COC(=O)c1ccc(CN2C(=O)CCc3c(CC4SC(=O)NC4=O)ccc(OC)c32)cc1 (stereo not drawn) [Test Compound 025]	0.58	38.3	53.0	59.9
COc1ccc(CC2SC(=O)NC2=O)c2c1N(Cc1ccc(OCc3ccccc3)cc1)C(=O)CC2 (stereo not drawn) [Test Compound 127]	0.60	31.0	49.8	44.8
COc1ccc(OC(=O)Nc2ccc(CN3C(=O)CCc4c(CC5SC(=O)NC5=O)ccc(OC)c43)cc2)cc1 (stereo not drawn) [Test Compound 237]	0.57	25.9	26.2	25.9
COc1ccc(CC2SC(=S)NC2=O)c2c1N(CCOc1ccccc1)C(=O)CC2 (stereo not drawn) [Test Compound 981]	0.68	37.8	75.7	70.4
CC(C)(C)OC(=O)N1CCC(CCN2C(=O)CCc3c(CC4SC(=O)NC4=O)cccc32)CC1 (stereo not drawn) [Test Compound 159]	0.64	27.7	33.5	34.0
COc1ccc(CC2SC(=O)NC2=O)c2c1N(Cc1ccc(Br)cc1)C(=O)CC2 (stereo not drawn) [Test Compound 123]	0.46	28.6	28.5	48.3
O=C1NC(=S)SC1Cc1ccc2c(c1)CCC(=O)N2Cc1ccc(-c2ccccc2)cc1 (stereo not drawn) [Test Compound 995]	0.66	28.1	29.3	38.3
Cc1ccc(CC(=O)N2CCC(CCN3C(=O)CCc4c(CC5SC(=O)NC5=O)cccc43)CC2)cc1 (stereo not drawn) [Test Compound 616]	0.57	26.3	31.4	35.3
COc1ccc(CC2SC(=O)NC2=O)c2c1N(Cc1ccc(C#N)cc1)C(=O)CC2 (stereo not drawn) [Test Compound 125]	0.55	29.2	52.5	45.4
O=C1NC(=O)C(Cc2ccc3c(c2)CCC(=O)N3Cc2ccc(-c3ccccc3)cc2)S1 (stereo not drawn) [Test Compound 186]	0.67	29.7	70.8	67.7
O=C1NC(=O)C(Cc2cccc3c2CCC(=O)N3Cc2ccc(Br)cc2)S1 (stereo not drawn) [Test Compound 134]	0.46	33.1	36.6	55.4
